Laboratory results: patent publication US8258160B2, “SCD1 inhibitors triazole and tetrazole compounds” (Novartis AG, priority 2006, dated 2012)

Legend:
[1] = biological target: T1, stearoyl-CoA desaturase (SCD1) (Mus musculus, UniProt P13516); assay: SCD microsomal assay: release of 3H2O from [9,10-3H]stearoyl-CoA in mouse liver microsomes; assay type: biochemical; settings: 15 min incubation, 25° C.
T1 construct: Reactions are started by adding 50 μL of microsomes (1.25 mg/mL); from tissue; host or cells: liver microsomes of male ICR outbred mice on a high-carbohydrate, low-fat diet
T1 sequence (P13516 1-355): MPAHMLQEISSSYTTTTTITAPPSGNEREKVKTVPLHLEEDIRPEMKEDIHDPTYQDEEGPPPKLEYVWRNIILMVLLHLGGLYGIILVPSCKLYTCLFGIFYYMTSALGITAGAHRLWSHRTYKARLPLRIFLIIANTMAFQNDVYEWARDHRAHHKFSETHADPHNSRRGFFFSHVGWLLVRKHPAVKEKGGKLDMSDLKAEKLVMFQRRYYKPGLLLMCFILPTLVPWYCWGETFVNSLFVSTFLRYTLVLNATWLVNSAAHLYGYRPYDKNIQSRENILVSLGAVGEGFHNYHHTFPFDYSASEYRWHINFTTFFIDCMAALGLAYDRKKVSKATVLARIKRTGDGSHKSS
Source text: The identification of compounds of the invention as SCD inhibitors was readily accomplished using the SCD enzyme and microsomal assay procedure described in Shanklin J. and Summerville C., Proc. Natl. Acad. Sci. USA (1991), Vol. 88, pp. 2510-2514.
The identification of compounds of the invention as SCD inhibitors was readily accomplished using the SCD microsomal assay procedure described in Shanklin J. and Summerville C., Proc. Natl. Acad. Sci. USA (1991), Vol. 88, pp. 2510-2514.
Male ICR outbread mice, on a high-carbohydrate, low fat diet, under light halothane (15% in mineral oil) anesthesia are sacrificed by exsanguination during periods of high enzyme activity. Livers are immediately rinsed with cold 0.9% NaCl solution, weighed and minced with scissors. All procedures are performed at 4° C. unless specified otherwise. Livers are homogenized in a solution (1/3 w/v) containing 0.25 M sucrose, 62 mM potassium phosphate buffer (pH 7.0), 0.15 M KCl, 15 mM N-acetylcysteine, 5 mM MgCl2, and 0.1 mM EDTA using 4 strokes of a Potter-Elvehjem tissue homogenizer. The homogenate is centrifuged at 10,400×g for 20 min to eliminate mitochondria and cellular debris. The supernatant is filtered through a 3-layer cheesecloth and centrifuged at 105,000×g for 60 min. The microsomal pellet is gently resuspended in the same homogenization solution with a small glass/teflon homogenizer and stored at −70° C. The absence of mitochondrial contamination is enzymatically assessed. The protein concentration is measured using bovine serum albumin as the standard.
Desaturase activity is measured as the release of ^3H2O from [9,10-^3H]stearoyl-CoA. Reactions per assay point conditions are as follows: 2 μL 1.5 mM stearoyl-CoA, 0.25 μL 1 mCi/mL ^3H stearoyl CoA, 10 μL 20 mM NADH, 36.75 μL 0.1 M PK buffer (K2HPO4/NaH2PO4, pH 7.2). The test compound or control solution is added in a 1 μL volume. Reactions are started by adding 50 μL of microsomes (1.25 mg/mL). The plates are mixed and after 15 min incubation on a heating block (25° C.), the reactions are stopped by the addition of 10 μL 60% PCA. An aliquot of 100 μL is then transferred to a filter plate pretreated with charcoal and the plate centrifuged at 4000 rpm for 1 min. The flow through containing the ^3H2O released by the SCD1 desaturation reaction is added to scintillation fluid and the radioactivity measured in a Packard TopCount. The data is analysed to identify the IC50 for test compounds and reference compounds. […] The activity was defined in terms of % SCD enzyme activity remaining at the desired concentration of the test compound or as the IC50 concentration. The IC50 (affinity) of the example compounds toward the stearoyl-CoA desaturase is comprised between around 20 μM and 0.0001 μM or between around 5 μM and 0.0001 μM or between around 1 μM and 0.0001 μM.

Row | SMILES | IC50 [1] [nM] | melting point
1 | Cc1nc(-c2nnn(CC3CC3)n2)sc1C(=O)NCc1cccnc1 (single isomer, unassigned) [Example 7.3, 2-(2-(Cyclopropylmethyl)-2H-tetrazol-5-yl)-4-methyl-N-(pyridin-3-ylmethyl)thiazole-5-carboxamide] | 310 | 149 to 150 °C
2 | Cc1nc(-c2nnn(Cc3ccc(F)cc3)n2)sc1C(=O)NCc1cccnc1 (single isomer, unassigned) [Example 7.1, 2-(2-(4-Fluorobenzyl)-2H-tetrazol-5-yl)-4-methyl-N-(pyridin-3-ylmethyl)thiazole-5-carboxamide] | 510 | 148 to 149 °C
3 | Cc1cc(-c2n[nH]c(Cc3ccccc3)n2)sc1C(=O)NCc1cccnc1 [Example 26, 5-(5-benzyl-1H-1,2,4-triazol-3-yl)-3-methyl-N-(pyridin-3-ylmethyl)thiophene-2-carboxamide] | 300 | 82 °C (dec.)
4 | Cc1nc(-c2cc(Cc3ccccc3)no2)sc1C(=O)NCc1ccccc1 [Example 27, N-benzyl-2-(3-benzylisoxazol-5-yl)-4-methylthiazole-5-carboxamide] | 600 | 103 to 104 °C
5 | Cc1nc(-n2cc(CCC3CCCCC3)nn2)sc1C(=O)NCc1ccccc1 [Example 10.14, N-benzyl-2-(4-(2-cyclohexylethyl)-1H-1,2,3-triazol-1-yl)-4-methylthiazole-5-carboxamide] | 240 | 82 to 84 °C

Compounds with a lower IC50 [1], results first:

Row | IC50 [1] [nM] | melting point | SMILES
6 | 10 | 198 to 201 °C | Cc1nc(-n2cc(C(=O)NCc3ccc(F)cc3)nn2)sc1C(=O)NCc1ccccc1 [Example 18.1, N-benzyl-2-(4-(4-fluorobenzylcarbamoyl)-1H-1,2,3-triazol-1-yl)-4-methylthiazole-5-carboxamide]
7 | 60 | 139 to 141 °C | Cc1nc(-n2cc(Cc3ccccc3)nn2)sc1C(=O)NCc1ccccc1 [Example 10.1, N-benzyl-2-(4-benzyl-1H-1,2,3-triazol-1-yl)-4-methylthiazole-5-carboxamide]
8 | 120 | 149 to 150 °C | Cc1nc(-c2cn(CCc3ccc(F)cc3)nn2)sc1C(=O)NCc1cccnc1 [Example 4.3, 2-(1-(4-fluorophenethyl)-1H-1,2,3-triazol-4-yl)-4-methyl-N-(pyridin-3-ylmethyl)thiazole-5-carboxamide]
9 | 30 | 108 to 109 °C | Cc1nc(-c2cn(Cc3ccccc3)nn2)sc1C(=O)NCc1ccccc1 [Example 1.1, N-benzyl-2-(1-benzyl-1H-1,2,3-triazol-4-yl)-4-methylthiazole-5-carboxamide]
10 | 160 | 175 to 176 °C | Cc1nc(-c2nnnn2Cc2ccc(C(F)(F)F)cc2)sc1C(=O)NCc1cccnc1 (single isomer, unassigned) [Example 7.2, 4-Methyl-N-(pyridin-3-ylmethyl)-2-(1-(4-(trifluoromethyl)benzyl)-1H-tetrazol-5-yl)thiazole-5-carboxamide]
11 | 20 | 181 to 182 °C | Cc1nc(-c2cn(CCc3ccc(F)cc3)nn2)sc1C(=O)NCc1ccccc1 [Example 1, N-benzyl-2-(1-(4-fluorophenethyl)-1H-1,2,3-triazol-4-yl)-4-methylthiazole-5-carboxamide]
